Reference: paper PMC8041284, “Tunable Methacrylamides for Covalent Ligand Directed Release Chemistry” (Journal of the American Chemical Society, 2021)
Read-outs that look alike come from different tables or passages of the source.

Target: BTK (Homo sapiens, UniProt Q06187)
Experiment: biochemical
[1] = read-out: BTK inhibition (%), 0.75 uM BTK, […] probe 3l, 15 min preincubation

Sequence of BTK (Q06187 402-655 limits assumed): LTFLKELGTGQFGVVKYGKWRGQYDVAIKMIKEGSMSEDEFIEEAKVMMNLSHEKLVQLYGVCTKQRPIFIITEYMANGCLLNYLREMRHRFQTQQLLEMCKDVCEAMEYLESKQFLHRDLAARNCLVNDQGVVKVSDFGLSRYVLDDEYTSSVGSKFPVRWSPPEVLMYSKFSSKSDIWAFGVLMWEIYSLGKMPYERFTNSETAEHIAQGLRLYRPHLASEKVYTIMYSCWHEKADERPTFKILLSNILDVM

Row | Structure (SMILES) | inhibition at 10 µM [1] | inhibition at 10 µM (read-out: BTK inhibition (%))
1 | Nc1ncnc2c1ncn2[C@@H]1O[C@H](COP(=O)(O)O)[C@@H](O)[C@H]1O [PCM-0086027] | -23.2% | 
2 | Cc1cccn2c(=O)c(-c3nnn[nH]3)cnc12 [PCM-0086031] | -17% | 
3 | COc1cccc2c1C(=O)c1c(O)c3c(c(O)c1C2=O)C[C@@](O)(C(=O)CO)C[C@@H]3O[C@H]1C[C@H](N)[C@H](O)[C@H](C)O1 [PCM-0086032] | 42.8% | 
4 | CCOC(=O)n1ccn(C)c1=S [PCM-0086034] | -17.1% | 
5 | CCOCCn1c(N2CCCN(C)CC2)nc2ccccc21 [PCM-0086037] | 2.3% | 
6 | CC[C@H](C)C(=O)O[C@H]1C[C@@H](C)C=C2C=C[C@H](C)[C@H](CC[C@@H]3C[C@@H](O)CC(=O)O3)[C@H]21 [PCM-0086045] | 9.3% | 
7 | Cn1nnc2c(C(N)=O)ncn2c1=O [PCM-0086047] | -4.1% | 
8 | NC(=O)N1c2ccccc2CC(=O)c2ccccc21 [PCM-0086055] | -10.1% | 
9 | CCN[C@H]1CN(CCCOC)S(=O)(=O)c2sc(S(N)(=O)=O)cc21 [PCM-0086056] | -11.7% | 
10 | Cc1cnc(NC(=O)C2=C(O)c3ccccc3S(=O)(=O)N2C)s1 [PCM-0086060] | -6.2% | 
11 | OCCN1C[C@H](O)[C@@H](O)[C@H](O)[C@H]1CO [PCM-0086065] | -23.3% | 
12 | COc1cc(C(=O)NS(=O)(=O)c2ccccc2C)ccc1Cc1cn(C)c2ccc(NC(=O)OC3CCCC3)cc12 [PCM-0086066] | 47.6% | 
13 | c1ccc2[nH]c(-c3cscn3)nc2c1 [PCM-0086067] | -17.1% | 
14 | CN(Cc1ccc(C(C)(C)C)cc1)Cc1cccc2ccccc12 [PCM-0086068] | 62.3% | 
15 | CCc1cc(C(N)=S)ccn1 [PCM-0086071] | -14.8% | 
16 | CN1C(C(=O)Nc2ccccn2)=C(O)c2sccc2S1(=O)=O [PCM-0086073] | -6.9% | 
17 | CCCOc1ccc2nc(NC(=O)OC)[nH]c2c1 [PCM-0086075] | 10.2% | 
18 | Cc1cccc(CN2CCN(C(c3ccccc3)c3ccc(Cl)cc3)CC2)c1 (stereo not shown) [PCM-0086087] | 67.2% | 
19 | CCOc1ccc(NC(C)=O)cc1 [PCM-0086095] | 5.5% | 
20 | Nc1nc(=O)n([C@@H]2CS[C@H](CO)O2)cc1F [PCM-0086099] | -10.1% | 
21 | Cc1cnc(C(=O)O)c[n+]1[O-] [PCM-0086103] | 3.1% | 
22 | Nc1cc(C(Cl)=C(Cl)Cl)c(S(N)(=O)=O)cc1S(N)(=O)=O [PCM-0086106] | -3.9% | 
23 | CC(C)(Sc1cc(C(C)(C)C)c(O)c(C(C)(C)C)c1)Sc1cc(C(C)(C)C)c(O)c(C(C)(C)C)c1 [PCM-0086112] | 0.8% | 
24 | OCCOCCN1CCN(C2=Nc3ccccc3Sc3ccccc32)CC1 [PCM-0086113] | -4.7% | 
25 | CO[C@H]1/C=C/O[C@@]2(C)Oc3c(C)c(O)c4c(O)c(c(/C=N/N5CCN(C6CCCC6)CC5)c(O)c4c3C2=O)NC(=O)/C(C)=C\C=C\[C@H](C)[C@H](O)[C@@H](C)[C@@H](O)[C@@H](C)[C@H](OC(C)=O)[C@@H]1C [PCM-0086116] | 43.6% | 

Row | Structure (SMILES) | inhibition at 10 µM [1] | inhibition at 10 µM (read-out: BTK inhibition (%))
26 | CCCN(CCC)S(=O)(=O)c1ccc(C(=O)O)cc1 [PCM-0086122] | -4.7% | 
27 | NCC1OC(OC2C(N)CC(N)C(OC3OC(CO)C(O)C(N)C3O)C2O)C(N)CC1O (stereo not shown) [PCM-0086125] | 21.3% | 
28 | NC[C@H]1O[C@H](O[C@H]2[C@H](O)[C@@H](O[C@H]3O[C@H](CO)[C@@H](O)[C@H](N)[C@H]3O)[C@H](N)C[C@@H]2N)[C@H](N)C[C@@H]1O [PCM-0086125] | -14.5% | 
29 | CC(=O)[C@H]1CC[C@H]2[C@@H]3CC=C4C[C@@H](O)CC[C@]4(C)[C@H]3CC[C@]12C [PCM-0086127] | -22.6% | 
30 | CC(=O)SCC(Cc1ccccc1)C(=O)NCC(=O)OCc1ccccc1 (stereo not shown) [PCM-0086128] | 3.1% | 
31 | CCOC(=O)[C@H](CCc1ccccc1)N[C@H]1CCc2ccccc2N(CC(=O)O)C1=O [PCM-0086130] | -24.9% | 
32 | Clc1ccc(Nc2nnc(Cc3ccncc3)c3ccccc23)cc1 [PCM-0086134] | -14.5% | 
33 | NC[C@H]1O[C@H](O[C@H]2[C@H](O)[C@@H](O[C@H]3O[C@H](CO)[C@@H](O)[C@H](N)[C@H]3O)[C@H](N)C[C@@H]2N)[C@H](O)[C@@H](O)[C@@H]1O [PCM-0086137] | 23.8% | 
34 | COc1cc([C@@H]2c3cc4c(cc3[C@@H](O[C@@H]3O[C@@H]5CO[C@@H](C)O[C@H]5[C@H](O)[C@H]3O)[C@H]3COC(=O)[C@H]23)OCO4)cc(OC)c1O [PCM-0086140] | -2.8% | 
35 | CNCC[C@@H](Oc1ccccc1C)c1ccccc1 [PCM-0086150] | 11.7% | 
36 | CN1CCN2c3ncccc3Cc3ccccc3C2C1 (stereo not shown) [PCM-0086153] | 12.5% | 
37 | Cc1ccc(S(=O)(=O)NC(=O)NN2CC3CCCC3C2)cc1 (stereo not shown) [PCM-0086156] | -2.3% | 
38 | O=c1[nH]c(=O)n([C@H]2C[C@H](O)[C@@H](CO)O2)cc1F [PCM-0086169] | -3.9% | 
39 | CCOc1cc(CC(=O)N[C@@H](CC(C)C)c2ccccc2N2CCCCC2)ccc1C(=O)O [PCM-0086171] | 17.1% | 
40 | NC(=O)C(c1ccccc1)(c1ccccc1)[C@@H]1CCN(CCc2ccc3c(c2)CCO3)C1 [PCM-0086175] | 4.7% | 
41 | CC(C)(C#N)c1cc(Cn2cncn2)cc(C(C)(C)C#N)c1 [PCM-0086178] | -11% | 
42 | Cc1cccc(C)c1NC(=O)C1CCCCN1C (stereo not shown) [PCM-0086182] | 3.4% | 
43 | CO[C@H]1/C=C/O[C@@]2(C)Oc3c(C)c(O)c4c(O)c(c5c(nc6cc(C)ccn65)c4c3C2=O)NC(=O)/C(C)=C\C=C\[C@H](C)[C@H](O)[C@@H](C)[C@@H](O)[C@@H](C)[C@H](OC(C)=O)[C@@H]1C [PCM-0086183] | 10.1% | 
44 | O=c1[nH]c(=O)n([C@H]2C[C@H](O)[C@@H](CO)O2)cc1C(F)(F)F [PCM-0086194] | 2.3% | 
45 | CN(Cc1cc(Br)cc(Br)c1N)C1CCCCC1 [PCM-0086201] | 29.6% | 
46 | C1N2CN3CN1CN(C2)C3 [PCM-0086204] | -8.6% | 
47 | N#CC(c1ccc(Cl)cc1)c1c(Cl)cc(-n2ncc(=O)[nH]c2=O)cc1Cl (stereo not shown) [PCM-0086206] | -0.8% | 
48 | COC(=O)Nc1nc2ccc([S+]([O-])c3ccccc3)cc2[nH]1 (stereo not shown) [PCM-0086213] | 17.9% | 
49 | Nc1ccc(O)c(C(=O)O)c1 [PCM-0086222] | -9% | 
50 | O=C(CCCCCCC(=O)Nc1ccccc1)NO [PCM-0086223] | -9% | 

Row | Structure (SMILES) | inhibition at 10 µM [1] | inhibition at 10 µM (read-out: BTK inhibition (%))
51 | CCOc1nc2cccc(C(=O)O)c2n1Cc1ccc(-c2ccccc2-c2nn[nH]n2)cc1 [PCM-0086226] | 24.1% | 
52 | Nc1nc(F)nc2c1ncn2[C@@H]1O[C@H](CO)[C@@H](O)[C@@H]1O [PCM-0086227] | -19.5% | 
53 | Nc1nc(Cl)nc2c1ncn2[C@H]1C[C@H](O)[C@@H](CO)O1 [PCM-0086228] | -16.6% | 
54 | CCCc1nc(C)c2c(=O)[nH]c(-c3cc(S(=O)(=O)N4CCN(CC)CC4)ccc3OCC)nn12 [PCM-0086229] | -10.9% | 
55 | OC(Cn1cncn1)(Cn1cncn1)c1ccc(F)cc1F [PCM-0086230] | 9.3% | 
56 | CCCc1cc(C(N)=S)ccn1 [PCM-0086237] | -11.7% | 
57 | O=S(=O)(O)CCS [PCM-0086246] | -3.1% | 
58 | CCn1cc(C(=O)O)c(=O)c2cc(F)c(N3CCNCC3)nc21 [PCM-0086249] | 4.7% | 
59 | CN(C)CC/C=C1/c2ccccc2COc2ccc(CC(=O)O)cc21 [PCM-0086250] | 8.3% | 
60 | CCC1(c2cccc(O)c2)CCCCN(C)C1 (stereo not shown) [PCM-0086257] |  | 7.8%
61 | CC1(C)O[C@@H]2[C@@H](CO[C@@]3(COS(N)(=O)=O)OC(C)(C)O[C@@H]23)O1 [PCM-0086260] | -15.6% | 
62 | O=C1CCc2ccc(OCCCCN3CCN(c4cccc(Cl)c4Cl)CC3)cc2N1 [PCM-0086268] | -10.9% | 
63 | C#C[C@]1(O)CC[C@H]2[C@@H]3CCc4cc(O)ccc4[C@H]3CC[C@@]21C [PCM-0086269] | 26.5% | 
64 | CC1(C)O[C@@H]2C[C@H]3[C@@H]4C[C@H](F)C5=CC(=O)C=C[C@]5(C)[C@@]4(F)[C@@H](O)C[C@]3(C)[C@]2(C(=O)CO)O1 [PCM-0086270] | -17.1% | 
65 | C[C@@H]1CN(c2c(F)c(N)c3c(=O)c(C(=O)O)cn(C4CC4)c3c2F)C[C@H](C)N1 [PCM-0086271] | 2.3% | 
66 | CN(C)CCN(Cc1ccccc1)c1ccccn1 [PCM-0086274] | 12.8% | 
67 | COc1ncnc(NS(=O)(=O)c2ccc(N)cc2)c1OC [PCM-0086280] | 0.8% | 
68 | O=S(=O)(O)c1cc(O)ccc1O [PCM-0086281] | 3.9% | 
69 | C[C@]12CC[C@@H]3c4ccc(O)cc4CC[C@H]3[C@@H]1C[C@@H](O)[C@@H]2O [PCM-0086283] | 5.4% | 
70 | CCCCC[C@H](O)/C=C/[C@H]1[C@H](O)CC(=O)[C@@H]1CCCCCCC(=O)O [PCM-0086285] | 6.9% | 
71 | O=C(O)c1cn(-c2ccc(F)cc2)c2cc(N3CCNCC3)c(F)cc2c1=O [PCM-0086286] | -3.4% | 
72 | Cc1cc(-n2c(=O)[nH]c(=O)n(C)c2=O)ccc1Oc1ccc(SC(F)(F)F)cc1 [PCM-0086289] | -0.8% | 
73 | CCCCc1nc(Cl)c(CO)n1Cc1ccc(-c2ccccc2-c2nnn[nH]2)cc1 [PCM-0086291] | -10.9% | 
